According to ChEMBL document CHEMBL1201862, “PubChem BioAssay data set” (2004):
Where a name gives a salt, the structure may show the parent alone. Active and inactive are the calls of the source.

Experiments:
[1] = viability of PTEN-deleted HCT116 cells – cell-based, HCT116 PTEN knockout, dose response (AID 1047); type: functional;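 also: HCT116 colon tumor cells with PTEN knocked out; cells exposed to compound for 60 hours before readout; potency for loss of cell viability measured by luminescence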
INS1 = assay: INS-1E survival protection against cytokine death – cell-based, luminescence, retest, dose response (AID 449756); type: functional; details: Rattus norvegicus;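 also: cell death triggered by IL-1 beta plus TNF-alpha plus IFN-gamma mixture; protective hits raise ATP signal compared with cytokine alone wells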
[2] = target: Luciferin 4-monooxygenase (Photinus pyralis, UniProt P08659); assay: inhibition of purified Photinus pyralis luciferase – biochemical, luminescence, dose response (AID 1891)
Luciferin 4-monooxygenase, sequence (P08659 whole entry): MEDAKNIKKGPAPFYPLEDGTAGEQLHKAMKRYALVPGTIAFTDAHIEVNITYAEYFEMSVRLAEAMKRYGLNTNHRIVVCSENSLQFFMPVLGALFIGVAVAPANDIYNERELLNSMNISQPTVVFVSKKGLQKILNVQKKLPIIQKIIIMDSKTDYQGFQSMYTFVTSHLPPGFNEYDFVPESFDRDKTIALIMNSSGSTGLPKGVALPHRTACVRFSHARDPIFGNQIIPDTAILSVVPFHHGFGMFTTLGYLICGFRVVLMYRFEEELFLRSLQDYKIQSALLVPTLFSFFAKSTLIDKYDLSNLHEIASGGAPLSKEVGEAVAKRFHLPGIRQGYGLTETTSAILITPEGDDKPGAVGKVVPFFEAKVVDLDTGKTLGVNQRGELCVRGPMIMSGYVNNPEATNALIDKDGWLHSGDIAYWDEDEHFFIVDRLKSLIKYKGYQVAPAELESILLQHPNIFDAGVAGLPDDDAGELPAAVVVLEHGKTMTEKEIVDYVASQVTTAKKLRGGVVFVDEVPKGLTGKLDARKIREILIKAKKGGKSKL

[3] = viability of HCT116 lacking mutant beta-catenin – cell-based, human colon tumor, dose response (AID 1045); type: functional;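 also: HCT116 colon tumor cells with beta catenin knocked out; cells exposed to compound for 60 hours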
[4] = Luminescence Cell-Based Dose Confirmation HTS to Identify Inhibitors of Platelet Dense Granule Release. [Related pubchem assays: 1663 (Primary HTS), 1678 (Summary of Project)]; type: functional
Melanocortin receptor 4 = Melanocortin receptor 4 (Homo sapiens, UniProt P32245); type: functional, cell-based;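 also: Cell-based assay with luminescence read-out, confirmatory dose-response testing for agonist activity of biased ligands at MC4R; human U2OS cells with tagged receptor and beta-arrestin; potency of agonists that increase receptor coupling to beta-arrestin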
Melanocortin receptor 4, sequence (P32245 whole entry): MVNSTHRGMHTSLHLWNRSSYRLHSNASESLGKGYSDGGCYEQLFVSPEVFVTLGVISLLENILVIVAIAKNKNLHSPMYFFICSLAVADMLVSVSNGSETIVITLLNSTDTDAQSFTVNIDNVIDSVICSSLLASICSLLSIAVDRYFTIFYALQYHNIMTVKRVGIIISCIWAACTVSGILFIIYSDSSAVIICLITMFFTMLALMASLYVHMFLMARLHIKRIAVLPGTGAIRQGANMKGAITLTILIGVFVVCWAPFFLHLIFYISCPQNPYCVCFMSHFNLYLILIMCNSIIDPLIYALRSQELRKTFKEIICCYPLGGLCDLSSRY

[5] = target: T1, Sentrin-specific protease 6 (Homo sapiens, UniProt Q9GZR1); assay: SAR Analysis of small molecule inhibitors of Sentrin-specific protease 6 (SENP6) using a Luminescent assay. [Related pubchem assays (depositor defined):AID2582, AID2599]; type: functional
T1 sequence (Q9GZR1 whole entry): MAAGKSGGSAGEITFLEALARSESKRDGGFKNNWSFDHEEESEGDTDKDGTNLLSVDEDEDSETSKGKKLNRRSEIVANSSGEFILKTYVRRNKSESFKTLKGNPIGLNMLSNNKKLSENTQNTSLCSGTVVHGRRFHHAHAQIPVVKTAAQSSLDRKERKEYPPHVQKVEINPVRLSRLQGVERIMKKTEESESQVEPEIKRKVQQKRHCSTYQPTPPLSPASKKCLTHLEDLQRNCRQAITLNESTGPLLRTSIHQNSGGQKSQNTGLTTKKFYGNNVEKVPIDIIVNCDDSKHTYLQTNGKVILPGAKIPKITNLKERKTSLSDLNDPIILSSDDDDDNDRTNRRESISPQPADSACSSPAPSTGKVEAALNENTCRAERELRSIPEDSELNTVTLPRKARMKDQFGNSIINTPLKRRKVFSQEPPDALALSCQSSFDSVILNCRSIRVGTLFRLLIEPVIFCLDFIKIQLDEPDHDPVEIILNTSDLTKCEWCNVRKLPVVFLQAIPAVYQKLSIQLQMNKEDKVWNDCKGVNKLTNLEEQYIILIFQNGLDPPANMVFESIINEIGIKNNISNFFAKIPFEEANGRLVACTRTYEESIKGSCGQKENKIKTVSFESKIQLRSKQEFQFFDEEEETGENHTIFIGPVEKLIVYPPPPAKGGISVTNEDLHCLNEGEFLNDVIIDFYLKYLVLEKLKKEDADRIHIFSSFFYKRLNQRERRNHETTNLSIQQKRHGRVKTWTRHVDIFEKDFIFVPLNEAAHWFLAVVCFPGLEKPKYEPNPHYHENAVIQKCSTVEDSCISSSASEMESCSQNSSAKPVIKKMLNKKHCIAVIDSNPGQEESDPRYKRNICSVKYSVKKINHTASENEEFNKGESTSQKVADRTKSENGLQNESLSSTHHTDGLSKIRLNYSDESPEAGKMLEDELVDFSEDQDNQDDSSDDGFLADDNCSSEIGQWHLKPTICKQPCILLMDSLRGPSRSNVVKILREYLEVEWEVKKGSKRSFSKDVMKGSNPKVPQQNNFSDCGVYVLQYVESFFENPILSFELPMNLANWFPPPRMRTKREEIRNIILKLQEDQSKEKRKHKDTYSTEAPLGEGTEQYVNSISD

[6] = target: T2, Sentrin-specific protease 7 (Homo sapiens, UniProt Q9BQF6); assay: inhibition of human SENP7 cleavage activity – biochemical, luminescence, SAR follow-up (AID 504497); type: functional
T2 sequence (Q9BQF6 whole entry): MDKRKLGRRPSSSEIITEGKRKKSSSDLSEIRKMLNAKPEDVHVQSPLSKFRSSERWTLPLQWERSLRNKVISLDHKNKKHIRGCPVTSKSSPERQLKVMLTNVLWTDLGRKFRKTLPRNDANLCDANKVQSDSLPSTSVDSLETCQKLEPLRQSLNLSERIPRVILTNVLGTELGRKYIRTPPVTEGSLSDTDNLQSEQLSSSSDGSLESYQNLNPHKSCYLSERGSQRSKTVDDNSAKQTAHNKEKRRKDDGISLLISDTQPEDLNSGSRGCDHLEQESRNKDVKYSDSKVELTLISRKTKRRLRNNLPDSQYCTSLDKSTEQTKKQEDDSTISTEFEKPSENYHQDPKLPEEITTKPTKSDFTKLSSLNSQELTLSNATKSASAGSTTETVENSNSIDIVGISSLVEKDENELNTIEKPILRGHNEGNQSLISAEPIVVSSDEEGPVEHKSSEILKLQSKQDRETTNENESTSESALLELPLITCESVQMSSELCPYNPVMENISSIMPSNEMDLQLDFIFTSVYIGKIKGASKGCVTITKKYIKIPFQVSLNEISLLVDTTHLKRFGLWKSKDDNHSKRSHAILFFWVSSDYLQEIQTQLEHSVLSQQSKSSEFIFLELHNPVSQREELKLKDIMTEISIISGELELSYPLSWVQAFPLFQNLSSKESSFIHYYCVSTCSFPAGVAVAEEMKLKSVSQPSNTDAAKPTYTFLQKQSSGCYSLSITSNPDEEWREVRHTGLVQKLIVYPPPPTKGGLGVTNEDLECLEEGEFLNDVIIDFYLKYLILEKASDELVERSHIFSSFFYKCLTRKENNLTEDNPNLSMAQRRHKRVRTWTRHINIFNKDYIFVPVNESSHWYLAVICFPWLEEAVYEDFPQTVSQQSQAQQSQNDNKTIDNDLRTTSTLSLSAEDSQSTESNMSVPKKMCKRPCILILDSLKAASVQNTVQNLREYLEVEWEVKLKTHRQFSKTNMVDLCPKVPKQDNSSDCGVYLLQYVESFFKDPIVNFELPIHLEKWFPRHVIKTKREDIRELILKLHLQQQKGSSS

[7] = target: T3, Sentrin-specific protease 8 (Homo sapiens, UniProt Q96LD8); assay: inhibition of human SENP8 cleavage activity – biochemical, luminescence, SAR follow-up (AID 504501); type: functional
T3 sequence (Q96LD8 whole entry): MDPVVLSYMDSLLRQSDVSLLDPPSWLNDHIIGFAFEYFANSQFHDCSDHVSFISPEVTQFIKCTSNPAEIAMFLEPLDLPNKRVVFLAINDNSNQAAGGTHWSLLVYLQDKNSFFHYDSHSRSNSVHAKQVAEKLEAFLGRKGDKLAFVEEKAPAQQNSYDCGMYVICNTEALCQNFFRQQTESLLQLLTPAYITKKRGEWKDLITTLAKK

Caspase-3 = target: T4, Caspase-3 (Homo sapiens, UniProt P42574); assay: SAR Analysis of small molecule inhibitors of Sentrin-specific proteases (SENPs) using a Caspase-3 Selectivity assay. [Related pubchem assays (depositor defined):AID2540, AID2599, AID434973, AID489001]; type: functional
T4 sequence (P42574 whole entry): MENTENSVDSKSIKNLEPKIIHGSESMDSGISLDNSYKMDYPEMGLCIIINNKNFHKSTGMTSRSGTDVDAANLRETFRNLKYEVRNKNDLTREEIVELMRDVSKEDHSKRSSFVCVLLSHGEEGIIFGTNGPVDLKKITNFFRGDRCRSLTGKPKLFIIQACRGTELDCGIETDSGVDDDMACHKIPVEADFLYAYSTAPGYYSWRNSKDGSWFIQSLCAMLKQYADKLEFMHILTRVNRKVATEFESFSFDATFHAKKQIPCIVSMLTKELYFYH

[8] = target: 26S proteasome non-ATPase regulatory subunit 14 (Homo sapiens, UniProt O00487); assay: inhibition of proteasome subunit RPN11 – biochemical, fluorescence polarization, uHTS hits, confirmation (AID 602368); type: functional
26S proteasome non-ATPase regulatory subunit 14, sequence (O00487 whole entry): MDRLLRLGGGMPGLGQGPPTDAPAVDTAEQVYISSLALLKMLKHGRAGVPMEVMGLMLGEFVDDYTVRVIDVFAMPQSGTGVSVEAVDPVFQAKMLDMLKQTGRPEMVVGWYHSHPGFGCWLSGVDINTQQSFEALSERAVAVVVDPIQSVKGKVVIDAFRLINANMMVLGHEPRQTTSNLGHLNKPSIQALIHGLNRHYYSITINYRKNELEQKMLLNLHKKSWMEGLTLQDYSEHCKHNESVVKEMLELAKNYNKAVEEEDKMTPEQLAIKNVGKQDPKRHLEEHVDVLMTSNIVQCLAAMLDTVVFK

[9] = target: 72 kDa type IV collagenase (Homo sapiens, UniProt P08253); assay: Dose Response validation of uHTS RPN11 inhibitor hits using a MMP-2 Fluorescence assay.; type: functional
72 kDa type IV collagenase, sequence (P08253 whole entry): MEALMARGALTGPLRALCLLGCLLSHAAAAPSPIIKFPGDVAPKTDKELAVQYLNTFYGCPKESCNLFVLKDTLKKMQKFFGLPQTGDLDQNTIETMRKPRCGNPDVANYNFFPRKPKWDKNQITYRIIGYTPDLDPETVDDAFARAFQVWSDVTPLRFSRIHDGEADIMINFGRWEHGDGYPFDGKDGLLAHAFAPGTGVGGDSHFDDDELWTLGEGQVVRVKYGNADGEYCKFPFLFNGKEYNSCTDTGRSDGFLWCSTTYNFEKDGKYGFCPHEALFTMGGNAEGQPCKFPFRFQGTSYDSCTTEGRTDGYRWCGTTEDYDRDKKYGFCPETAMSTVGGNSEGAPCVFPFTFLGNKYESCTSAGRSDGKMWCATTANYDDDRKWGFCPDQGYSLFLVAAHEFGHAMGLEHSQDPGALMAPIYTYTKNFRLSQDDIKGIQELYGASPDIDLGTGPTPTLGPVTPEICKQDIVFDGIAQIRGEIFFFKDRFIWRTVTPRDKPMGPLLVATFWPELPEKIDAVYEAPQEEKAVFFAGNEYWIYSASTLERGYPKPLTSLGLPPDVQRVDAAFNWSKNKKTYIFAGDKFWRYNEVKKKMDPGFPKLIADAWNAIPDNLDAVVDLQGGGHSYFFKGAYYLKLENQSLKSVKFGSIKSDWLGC

HEK293 = assay: EBV LMP1 TES2 canonical NF-kB signalling blockers – cell-based, HEK293, luciferase, cherry-pick, dose response (AID 588343); type: functional; details: Homo sapiens
Prothrombin = Prothrombin (Bos taurus, UniProt P00735); assay: thrombin protease inhibitors – biochemical, fluorescence polarization, uHTS hits, dose response (AID 602369); type: functional
cells = type: functional, cell-based
[10] = target: T5, Nuclear receptor subfamily 0 group B member 1 (Homo sapiens, UniProt P51843); type: functional, cell-based;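 also: HEK293T cells transfected with SF-1 and DAX-1 plus StAR promoter luciferase reporter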
T5 sequence (P51843 whole entry): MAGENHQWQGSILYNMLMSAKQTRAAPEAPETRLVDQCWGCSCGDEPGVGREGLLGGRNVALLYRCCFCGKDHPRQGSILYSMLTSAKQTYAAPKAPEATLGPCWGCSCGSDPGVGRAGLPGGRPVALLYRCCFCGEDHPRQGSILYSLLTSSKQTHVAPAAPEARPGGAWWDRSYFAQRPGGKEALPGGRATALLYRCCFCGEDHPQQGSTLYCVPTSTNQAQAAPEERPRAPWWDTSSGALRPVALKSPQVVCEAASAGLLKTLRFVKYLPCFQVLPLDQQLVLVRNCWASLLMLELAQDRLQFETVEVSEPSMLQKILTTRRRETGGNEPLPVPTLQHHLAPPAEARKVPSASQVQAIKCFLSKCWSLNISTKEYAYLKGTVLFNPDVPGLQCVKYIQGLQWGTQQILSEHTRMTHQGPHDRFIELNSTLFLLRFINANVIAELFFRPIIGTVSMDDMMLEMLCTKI

Vero = assay: viability of Vero cells under compound – cytotoxicity control for flavivirus capping enzyme inhibitors (AID 588742); type: functional; details: Chlorocebus sabaeus
[11] = target: T6, RNA-binding protein pos-1 (Caenorhabditis elegans, UniProt G5EF15); assay: disruptors of C. elegans POS-1 RNA interaction – biochemical, fluorescence polarization, dose response (AID 1964);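 also: purified POS-1 fused to maltose binding protein made in E. coli; potency of compounds blocking POS-1 binding to fluorescent RNA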
T6 sequence (G5EF15 whole entry): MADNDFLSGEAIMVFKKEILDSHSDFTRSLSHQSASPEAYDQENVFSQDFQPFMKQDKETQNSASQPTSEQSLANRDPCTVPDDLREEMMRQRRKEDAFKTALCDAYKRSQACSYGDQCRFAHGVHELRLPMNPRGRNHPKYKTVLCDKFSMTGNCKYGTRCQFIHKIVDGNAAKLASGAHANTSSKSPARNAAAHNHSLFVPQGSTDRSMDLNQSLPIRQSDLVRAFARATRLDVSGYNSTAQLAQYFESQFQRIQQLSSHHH

[12] = target: T7, Endoribonuclease toxin MazF (Escherichia coli K-12, UniProt P0AE70); assay: substrate-only fluorescence increase artefacts – biochemical, single-stranded RNase substrate, counter-screen for MazEF activator project, dose response (AID 588502); type: functional
T7 sequence (P0AE70 whole entry): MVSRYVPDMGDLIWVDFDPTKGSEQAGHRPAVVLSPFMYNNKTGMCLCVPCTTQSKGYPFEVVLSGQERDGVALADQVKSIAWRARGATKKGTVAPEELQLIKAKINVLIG

[13] = target: T7, Endoribonuclease toxin MazF; assay: activation of MazEF endoribonuclease cleavage – biochemical, fluorescence, single-stranded RNA substrate, uHTS hits, dose response (AID 588481); type: functional
[14] = target: T8, Zinc finger protein mex-5 (Caenorhabditis elegans, UniProt Q9XUB2); assay: potency of MEX-5 RNA-binding blockers – biochemical, C. elegans, fluorescence polarization, dose response (AID 1960)
T8 sequence (Q9XUB2 whole entry): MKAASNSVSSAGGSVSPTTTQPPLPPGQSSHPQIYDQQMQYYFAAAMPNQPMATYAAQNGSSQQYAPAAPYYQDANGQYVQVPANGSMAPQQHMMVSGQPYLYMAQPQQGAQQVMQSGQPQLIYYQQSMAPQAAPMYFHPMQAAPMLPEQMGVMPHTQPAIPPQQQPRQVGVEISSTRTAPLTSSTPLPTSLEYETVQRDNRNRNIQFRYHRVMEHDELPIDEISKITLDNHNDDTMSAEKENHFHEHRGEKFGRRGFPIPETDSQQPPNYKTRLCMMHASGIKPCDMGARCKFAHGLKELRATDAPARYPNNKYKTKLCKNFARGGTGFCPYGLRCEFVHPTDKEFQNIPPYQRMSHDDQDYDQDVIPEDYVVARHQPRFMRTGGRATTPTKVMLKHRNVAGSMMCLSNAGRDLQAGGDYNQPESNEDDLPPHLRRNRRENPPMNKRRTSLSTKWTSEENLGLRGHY

With CCC(C)c1ccc(NC(S)=NC2CCN(Cc3ccccc3)CC2)cc1 (stereo not given) as the compound, how does the EC50 [1] read?
The EC50 was 13.5 µM (active).

What about the AC50 (INS1) of the same compound?
The AC50 was 6.84 µM (active).

What about the EC50 [2] of the same compound?
Its EC50 is > 112 µM (not active).

What about the EC50 [3] of the same compound?
Its EC50 is 14.2 µM (active).

What about the EC50 [4] of the same compound?
Its EC50 is > 112 µM (not active).

What about the EC50 (Melanocortin receptor 4) of the same compound?
The EC50 was > 9.91 µM (active).

Which IC50 [5] does the source give for CCc1cccc2c(C(=O)CN3C(=O)c4ccccc4C3=O)c[nH]c12 here?
The IC50 was > 99 µM (inactive).

What about the IC50 [6] of the same compound?
Its IC50 is > 99 µM (inactive).

And the IC50 [7]?
Its IC50 is > 99 µM (inactive).

And the IC50 (Caspase-3)?
Its IC50 is > 99 µM (inactive).

What does the source list for O=[N+]([O-])c1ccc(-c2nc(/C=C/c3ccc(F)cc3)no2)cc1?
IC50 [5]: > 99 µM (inactive); IC50 [6]: > 99 µM (inactive); IC50 [7]: > 99 µM (inactive); IC50 (Caspase-3): > 99 µM (inactive)

With Cc1ccsc1/C=C/c1ccc2ccccc2n1 as the compound, how does the IC50 [8] read?
Its IC50 is 23.4 µM (active).

What about the IC50 [9] of the same compound?
The IC50 was > 100 µM (inactive).

And the AC50 (HEK293)?
Its AC50 is 15.8 µM (active).

And the IC50 (Prothrombin)?
Its IC50 is 29.3 µM (active).

And the IC50 (cells)?
The IC50 was > 67.5 µM (inactive).

What about the IC50 [10] of the same compound?
Its IC50 is > 0.278 µM (active).

Which CC50 (Vero) does the source give for CN1CCN(C(c2ccccc2)c2ccc(Cl)cc2)CC1 (stereo not given) [CHLORCYCLIZINE HYDROCHLORIDE] here?
The CC50 was > 40 µM (active).

For COc1ccc2c(c1)c1nc3ccccc3nc1n2CCCN1C(=O)c2ccccc2C1=O, which EC50 [11] is on record?
Its EC50 is 32.7 µM (active).

And the EC50 [12]?
The EC50 was > 99 µM (inactive).

And the EC50 [13]?
The EC50 was > 99 µM (inactive).

What about the EC50 [14] of the same compound?
The EC50 was 73.9 µM (inconclusive).
